Assay [1] deals with Staphylococcus aureus MW2 delta-mecA (mecA-). Put plainly: IC50 (growth, competition assay). Particulars: cefoxitin: subinhibitory. In a few lines:
(§1)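 Pre-induced, 1:1-mixed fluorescent S. aureus MW2 mecA+ and ΔmecA strains were grown 20 h at 37 °C, 90% humidity, unshaken, in LB with a daily-set subinhibitory cefoxitin dose, in 1536-well plates. Compounds were given on five- or nine-point 2-fold gradients, in two dye-swapped replicates. DsRed (540/590) and GFP (485/520) were scaled per plate between single-strain control medians, with No Treatment then set to 0.5. Per-strain IC50 was the dose halving the No Treatment signal, or the maximal signal.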

Assay [2] concerns Staphylococcus aureus MW2 (mecA+). Put plainly: IC50 (growth, competition assay). Particulars: cefoxitin: subinhibitory. In short, it runs like this:
as §1

Where “and” joins values, the source holds several entries; their conditions need not be identical. Equal values may be shown once. Where a name gives a salt, the structure may show the parent alone. A value given as a limit tells only on which side of the number the result lay.

In general, IC50 refers to the midpoint of a concentration-inhibition curve.

Regarding `CCOC(=O)C1=C(C)NC(C)=C(C(=O)OC)C1c1cccc(Cl)c1Cl` (stereo not drawn) [Felodipine (Plendil)], the IC50 was determined as 7.13 µM in assay [1] (fluorescent label: DsRed), 6.89 µM in assay [1] (fluorescent label: GFP), 22.6 µM in assay [2] (fluorescent label: DsRed) and 31.8 µM in assay [2] (fluorescent label: GFP).
The corresponding values for `Cc1c(-c2ccc(O)cc2)n(Cc2ccc(OCCN3CCCCCC3)cc2)c2ccc(O)cc12` [Bazedoxifene HCl] are 13.5 µM, 28.3 µM, 56.8 µM and 56.6 µM.
Taken in the same sequence, the figures for `CCCCCCNC(=O)n1cc(F)c(=O)[nH]c1=O` [Carmofur] were less than 9.85 µM, less than 9.85 µM, less than 9.85 µM and less than 9.85 µM.
The corresponding values for `N[C@@H](Cc1cc(I)c(Oc2ccc(O)c(I)c2)c(I)c1)C(=O)O` [CYTOMEL] are 14 µM, less than 9.85 µM, 60.3 µM and 49.1 µM.
Consider `Cc1cc(C2CCCCC2)n(O)c(=O)c1` [Ciclopirox ethanolamine], for which the IC50 in assay [1] (fluorescent label: DsRed) is 28.3 µM and 61.2 µM; in assay [1] (fluorescent label: GFP) it was 29.8 µM and 57.2 µM; in assay [2] (fluorescent label: DsRed), 24.5 µM and 49.9 µM; in assay [2] (fluorescent label: GFP), 29.7 µM and 60.7 µM.
On to `Cc1nnc(SCC2=C(C(=O)O)N3C(=O)[C@@H](NC(=O)Cn4cnnn4)[C@H]3SC2)s1` [ANCEF], for which the IC50 in assay [1] (fluorescent label: DsRed) was less than 9.85 µM; in assay [1] (fluorescent label: GFP), less than 9.85 µM; in assay [2] (fluorescent label: DsRed), 17.8 µM; in assay [2] (fluorescent label: GFP), 14.9 µM.
In the case of `CC(C)c1c(C(=O)Nc2ccccc2)c(-c2ccccc2)c(-c2ccc(F)cc2)n1CC[C@@H](O)C[C@@H](O)CC(=O)O` [Atorvastatin calcium (Lipitor)], the 50% inhibitory concentration (IC50) in assay [1] (fluorescent label: DsRed) was 29 µM and 24.3 µM; in assay [1] (fluorescent label: GFP), 30.1 µM and 25.4 µM; in assay [2] (fluorescent label: DsRed), 91 µM and 75.8 µM; in assay [2] (fluorescent label: GFP) it was 73.2 µM and 62.8 µM.
Regarding `CN[C@H](CC(C)C)C(=O)N[C@H]1C(=O)N[C@@H](CC(N)=O)C(=O)N[C@H]2C(=O)N[C@H]3C(=O)N[C@H](C(=O)N[C@H](C(=O)O)c4cc(O)cc(O)c4-c4cc3ccc4O)[C@H](O)c3ccc(c(Cl)c3)Oc3cc2cc(c3O[C@@H]2O[C@H](CO)[C@@H](O)[C@H](O)[C@H]2O[C@H]2C[C@](C)(N)[C@H](O)[C@H](C)O2)Oc2ccc(cc2Cl)[C@H]1O` [VANCOCIN], the IC50 in assay [1] (fluorescent label: DsRed), in assay [1] (fluorescent label: GFP), in assay [2] (fluorescent label: DsRed) and in assay [2] (fluorescent label: GFP) was less than 9.85 µM in each case.
Turning to `Cc1ccc(C(=O)c2cc(O)c(O)c([N+](=O)[O-])c2)cc1` [Tolcapone], the IC50 in assay [1] (fluorescent label: DsRed) was less than 9.85 µM; in assay [1] (fluorescent label: GFP), less than 9.85 µM; in assay [2] (fluorescent label: DsRed) it was less than 9.85 µM; in assay [2] (fluorescent label: GFP), 14.4 µM.
Take `C[C@@H](O[C@H]1OCCN(Cc2nn(P(=O)(O)O)c(=O)[nH]2)[C@H]1c1ccc(F)cc1)c1cc(C(F)(F)F)cc(C(F)(F)F)c1` [Fosaprepitant dimeglumine]: the IC50 stood at 17.2 µM in assay [1] (fluorescent label: DsRed), 31.6 µM in assay [1] (fluorescent label: GFP), 53.4 µM in assay [2] (fluorescent label: DsRed) and 49.3 µM in assay [2] (fluorescent label: GFP).
Taken in the same sequence, the figures for `NC[C@@H]1O[C@H](C23CC4CC(CC(C4)C2)C3)Cc2c1ccc(O)c2O` were 34.6 µM, 54.9 µM, 34.9 µM and 56 µM.
Taken in the same sequence, the figures for `O=C(O)Cc1cccc(OCCCN(Cc2cccc(C(F)(F)F)c2Cl)CC(c2ccccc2)c2ccccc2)c1` [GW3965 HCl] were less than 9.85 µM, less than 9.85 µM, less than 9.85 µM and less than 9.85 µM.
Taken in the same sequence, the figures for `Cc1cncc(CN2CCC(=C3c4ccc(Cl)cc4CCc4cccnc43)CC2)c1` [Rupatadine Fumarate] were 26.6 µM, 20.2 µM, 74.3 µM and 112 µM.
On to `CCc1cc2c(cc1CC)CC(NC[C@H](O)c1ccc(O)c3[nH]c(=O)ccc13)C2` [Indacaterol Maleate], for which the IC50 in assay [1] (fluorescent label: DsRed) was 53.8 µM; in assay [1] (fluorescent label: GFP), 32.2 µM; in assay [2] (fluorescent label: DsRed), 71.1 µM; in assay [2] (fluorescent label: GFP), 91.4 µM.
Take `CN(Cc1cnc2nc(N)nc(N)c2n1)c1ccc(C(=O)N[C@@H](CCC(=O)O)C(=O)O)cc1` [Abitrexate (Methotrexate)]: the IC50 amounted to 36.3 µM in assay [1] (fluorescent label: DsRed), 31.5 µM in assay [1] (fluorescent label: GFP), 115 µM in assay [2] (fluorescent label: DsRed) and 103 µM in assay [2] (fluorescent label: GFP).
Taken in the same sequence, the figures for `CCn1cc(C(=O)O)c(=O)c2cc(F)c(N3CCNC(C)C3)c(F)c21` (stereo not drawn) [Lomefloxacin hydrochloride] were less than 9.85 µM, less than 9.85 µM, less than 9.85 µM and less than 9.85 µM.
The corresponding values for `C[C@H]1c2cccc(O)c2C(=O)C2=C(O)[C@]3(O)C(=O)C(C(N)=O)=C(O)[C@@H](N(C)C)[C@@H]3[C@@H](O)[C@@H]21` [Doxycycline hydrochloride] are less than 9.85 µM, less than 9.85 µM, less than 9.85 µM and less than 9.85 µM.
Taken in the same sequence, the figures for `O=[N+]([O-])C=Cc1ccc2c(c1)OCO2` [MNS] were less than 9.85 µM, less than 9.85 µM, 20.5 µM and 27.1 µM.
As for `CN(C)c1ccc(O)c2c1C[C@H]1C[C@H]3[C@H](N(C)C)C(O)=C(C(N)=O)C(=O)[C@@]3(O)C(O)=C1C2=O` [SOLODYN], the IC50 in assay [1] (fluorescent label: DsRed), in assay [1] (fluorescent label: GFP), in assay [2] (fluorescent label: DsRed) and in assay [2] (fluorescent label: GFP) was less than 9.85 µM each time.
Regarding `CCn1cnc2c(Nc3cccc(Cl)c3)nc(N[C@@H]3CCCC[C@@H]3N)nc21`, the IC50 in assay [1] (fluorescent label: DsRed) is 15.2 µM; in assay [1] (fluorescent label: GFP), 17 µM; in assay [2] (fluorescent label: DsRed), 65.8 µM; in assay [2] (fluorescent label: GFP) it was 78.3 µM.
Turning to `Cc1ccc(S(=O)(=O)C=CC#N)cc1` [BAY 11-7082 (BAY 11-7821)], the IC50 in assay [1] (fluorescent label: DsRed) is less than 9.85 µM; in assay [1] (fluorescent label: GFP) it was less than 9.85 µM; in assay [2] (fluorescent label: DsRed), less than 9.85 µM; in assay [2] (fluorescent label: GFP), 9.88 µM.
`CC[C@H]1OC(=O)[C@H](C)[C@@H](O[C@H]2C[C@@](C)(OC)[C@@H](O)[C@H](C)O2)[C@H](C)[C@@H](O[C@@H]2O[C@H](C)C[C@H](N(C)C)[C@H]2O)[C@](C)(O)C[C@@H](C)C(=O)[C@H](C)[C@@H](O)[C@]1(C)O` [Erythromycin (E-Mycin)]: the IC50 in assay [1] (fluorescent label: DsRed) is less than 0.498 µM; in assay [1] (fluorescent label: GFP) it was less than 0.498 µM; in assay [2] (fluorescent label: DsRed) it was 1.42 µM; in assay [2] (fluorescent label: GFP), 1.62 µM.

These data come from the supplement of paper PMC7695840.
